Measured values reported in US20090053793A1, “Ethanol resistant and furfural resistant strains of E. coli FBR5 for production of ethanol from cellulosic biomass” (Rowan University, priority 2006, published 2009).

Test: Pilot batch fermentation in LB broth with xylose
Set-up: species or system E. coli
Conditions: pilot fermentations
Description: Pilot fermentation studies were conducted in a 3L fermentation vessel in conjunction with a BioFlo 3000 system (which is marketed by New Brunswick Scientific Co. of Edison, N.J.) to monitor temperature, dissolved oxygen, air flow rate, agitation rate and pH. The media used for fermentation consisted of LB broth, xylose at various concentrations, and ampicillin. For some runs, glucose was also added to the media (see the mixed sugar fermentation discussed in connection with FIG. 12 below). To ensure sterility, the fermentor, with the media inside, along with the condenser, and a flask of distilled water were autoclaved the day before each fermentation run. An overnight culture of the strain to be used in the fermentation was then grown the night before each run. The fermentor was connected to the BioFlo 3000 system when ready to begin the run. […] The nitrogen and water flows were then opened, whereby the fermentor was ready for the addition of the overnight culture. The following was then added to the fermentor: (1) 300 mL of sterile, filtered LB broth, (2) an amount of xylose determined as a function of the desired initial sugar concentration, (3) an amount of ampicillin such that the initial concentration in the fermentor was always 100 mg/L, and (4) the overnight culture, whereby fermentation began. […]

With O=C[C@H](O)[C@@H](O)[C@H](O)CO [xylose] the “xylose concentration found to inhibit cell growth and ethanol production” value was greater than 175 g/L.
